Source: patent publication US6423732B1, “Synergistic combinations of cyproconazole” (Syngenta Participations AG, priority 1992, dated 2002)

Key:
Assay in all cases: Wood preservation test ES 84/113, pine sapwood, weight loss of wood samples
Assay type in all cases: cell-based
[1] = test system: Coniophora puteana (cellar fungus); conditions: substance alone
Protocol: (§1) Determination of the Activity of the Cyproconazole in Combination with Dimethyldidecylammonium Chloride Against Wood-destroying Basidiomycetes
(§2) The active substances were tested in accordance with European Testing Standards ES 84 (1979) and 113 (1986). Treatment with the active substances prevents the wood from being destroyed. The effect of the treatment is quantified indirectly via the non-existing weight loss of the wood samples.
(§3) The wood sample used was pine sapwood, and the test fungi used were Coniophora puteana (cellar fungus), Poria plazenta, Gloeophyllum trabeum and Trametes (Coriolus) versicolor. Markedly smaller amounts of the combination according to the invention of cyproconazole (A: 2-(4-chlorophenyl)-3-cyclopropyl-3-methyl-1-(1H,1,2,4-triazol-1-yl)-butan-2-ol) and dimethyldidecylammonium chloride (B1) have the same result (0% weight loss) as cyproconazole or B1 alone. Comparably good results were also obtained when beech was used as the wood sample.

Poria plazenta = conditions: substance alone
Protocol: as §1, §2, §3

[2] = test system: Trametes (Coriolus) versicolor; conditions: substance alone
Protocol: as §1, §2, §3

Gloeophyllum trabeum = conditions: Gloephyllum, substance alone
Protocol: as §1, §2, §3

SMILES | Amount (g/m^3) of active Substance at 0% Weight Loss [1] | Amount (g/m^3) of active Substance at 0% Weight Loss (Poria plazenta) | Amount (g/m^3) of active Substance at 0% Weight Loss [2] | Amount (g/m^3) of active Substance at 0% Weight Loss (Gloeophyllum trabeum)
CC(C1CC1)C(O)(Cn1cncn1)c1ccc(Cl)cc1 (centres unmarked) [A] | 247 g g/m^3 | 243 g g/m^3 | 418 g g/m^3 | 247 g g/m^3
CCCCCCCCCC[N+](C)(C)CCCCCCCCCC.[Cl-] [B1, dimethyldidecylammonium chloride] | 12,415 g g/m^3 | 3,175 g g/m^3 | 2,675 g g/m^3 | 12,505 g g/m^3
